Test results reported in patent publication US20120282377A1, “Methods and Formulations for Inhibiting Degradation of Photosensitive Sweeteners and Sweetener Enhancers” (priority 2011, published 2012).

What was measured:
Format in all cases: physicochemical
[1] = Photodegradation on exposure to sunlight / UV light (background statements); conditions: sunlight for 2-3 days
Source text: Monatin (2-amino-4-carboxy-4-hydroxy-5-(3-indolyl)-pentanoic acid or 4-hydroxy-4-(3-indolylmethyl)-glutamic acid) is a natural sweetener. Monatin contains two chiral centers and therefore has four potential isomeric configurations: R,R-; S,S-; R,S-; and S,R-monatin. Different stereoisomers have different sweetening characteristics. Amino et al. have reported that the sweetness intensity is dependent on the optical purity of each stereoisomer (U.S. Patent Publication No. 2005/0020508).

[2] = Stability of sweetness enhancer to sunlight exposure in PET bottle with and without UV barrier (Example 1); conditions: 25 mg/L solution, 395 Langleys (Atlas Sun Test XLS+)
Method: Sweetness enhancer 3-((4-amino-2,2 -dioxido-1H-benzo [c][1,2,6]thiadiazin-5-yl)oxy)-2,2-dimethyl-N-propylpropanamide was evaluated for stability to sunlight exposure when formulated into a beverage packaged in PET packaging (bottle) with and without a UV barrier. The UV barrier PET bottle contained a UV absorbent compound that absorbs light up to approximately 390 nm. When a 25 mg/L solution of 3-((4-amino-2,2-dioxido-1H-benzo[c][1,2,6]thiadiazin-5-yl)oxy)-2,2-dimethyl-N-propylpropanamide was exposed to 395 Langleys of radiation (Atlas Sun Test XLS+Instrument) in a clear PET bottle with no UV barrier, 92% of 3-((4-amino-2,2 -dioxido-1H-benzo [c][1,2,6]thiadiazin-5-yl)oxy)-2,2-dimethyl-N-propylpropanamide was lost to degradation. The light exposure in this experiment was approximately equivalent to 24 hours of continuous irradiation or 2-3 days of normal sunlight irradiation (due to day/night cycle). In contrast, when the same experiment was carried out in a UV barrier PET bottle, only 10% of the 3-((4-amino-2,2-dioxido-1H-benzo[c][1,2,6]thiadiazin-5-yl)oxy)-2,2-dimethyl-N-propylpropanamide was lost to degradation.

[3] = Sucrose enhancer stability in prototype beverage formulation, UV irradiation in Atlas SunTest XLS+ (Example 6)
Method: The stability of sucrose enhancer 3-((4-amino-2,2-dioxido-1H-benzo[c][1,2,6]thiadiazin-5-yl)oxy)-2,2-dimethyl-N-propylpropanamide in regular PET bottles and PET bottles with UV barrier was evaluated. A control formulation was used that contained 106 mg sucrose enhancer in 4163 mg of a prototype beverage formulation. The prototype beverage formulation contained water, HFCS-55, citric acid, potassium citrate, EDTA, salts and vitamins. The samples were exposed to UV light using different Langley irradiation energy exposure at 40° C. in Atlas SunTest XLS+chamber.

[4] = prototype beverage formulation (control), PET, 0 Langley
[5] = prototype beverage formulation, PET with UV barrier, 66 Langley, 40° C.
[6] = prototype beverage formulation, PET with UV barrier, 197 Langley, 40° C.
[7] = prototype beverage formulation, PET with UV barrier, 395 Langley, 40° C.
[8] = prototype beverage formulation, PET, 66 Langley, 40° C.
[9] = prototype beverage formulation, PET, 197 Langley, 40° C.
[10] = prototype beverage formulation, PET, 395 Langley, 40° C.

lost to degradation ([2]; UV barrier PET bottle): 10%
lost to degradation ([2]; clear PET bottle with no UV barrier): 92%
Loss of Sucrose Enhancer (%) [3, 4]: 0%
Remaining Sucrose Enhancer (%) [3, 4]: 100%
Remaining Sucrose Enhancer (ppm) [3, 4]: 21.5 ppm
Loss of Sucrose Enhancer (%) [3, 5]: 4%
Remaining Sucrose Enhancer (%) [3, 5]: 96%
Remaining Sucrose Enhancer (ppm) [3, 5]: 20.7 ppm
Loss of Sucrose Enhancer (%) [3, 6]: 5%
Remaining Sucrose Enhancer (%) [3, 6]: 95%
Remaining Sucrose Enhancer (ppm) [3, 6]: 20.5 ppm
Loss of Sucrose Enhancer (%) [3, 7]: 10%
Remaining Sucrose Enhancer (%) [3, 7]: 90%
Remaining Sucrose Enhancer (ppm) [3, 7]: 19.3 ppm
Loss of Sucrose Enhancer (%) [3, 8]: 37%
Remaining Sucrose Enhancer (%) [3, 8]: 63%
Remaining Sucrose Enhancer (ppm) [3, 8]: 13.6 ppm
Loss of Sucrose Enhancer (%) [3, 9]: 75%
Remaining Sucrose Enhancer (%) [3, 9]: 25%
Remaining Sucrose Enhancer (ppm) [3, 9]: 5.4 ppm
Loss of Sucrose Enhancer (%) [3, 10]: 92%
Remaining Sucrose Enhancer (%) [3, 10]: 7.9%
Remaining Sucrose Enhancer (ppm) [3, 10]: 1.7 ppm
SMILES: CCCNC(=O)C(C)(C)COc1cccc2c1C(N)=NS(=O)(=O)N2 [Sucrose enhancer, 3-((4-amino-2,2-dioxido-1H-benzo[c][1,2,6]thiadiazin-5-yl)oxy)-2,2-dimethyl-N-propylpropanamide]
degradation upon exposure to sunlight [1]: completely degraded to inactive ingredients
